Patent US9850383B2, “Uncharged pyrenyloxy sulfonamide dyes for conjugation with biomolecules” (Gene Tools, LLC, priority 2016, dated 2017)

How the values were obtained:
[1] = Excitation and emission spectrum (fluorescence); format: physicochemical
Source text: FIG. 1. Excitation and emission spectrum of pyrenyloxy sulfonamide (Compound 4a)
FIG. 2. Excitation and emission spectrum of Cascade Blue
FIG. 3. Excitation and emission spectrum of fluorescein
(§1) The core structure of the improved, reactive, hydrophilic, uncharged fluorophores is a new class of pyrenyloxy sulfonamide compounds. […] The novelty of this invention involves the substantial improvement of the properties of Cascade Blue, a currently available blue-fluorescent dye. The high polarity of anionic sulfonate of Cascade Blue results in the membrane-impermeability which can only be used extracellularly, a major disadvantage for many desirable applications. […] And the high aqueous solubility of the pyrenyloxy sulfonamide is useful for biological and physiological application, allowing staining the cell surface which is negatively charged, and even more useful to enter the cell for intracellular detection. In addition, the Stokes shift of Cascade Blue is undesirably small (ca. 20 nm, FIG. 2). […] The Stokes shift of the compounds of this invention is a much more practical 44 nm (FIG. 1), a significant improvement in its utility as a tracer for biological applications. The molar extinction coefficient of the structure of the invention is slightly higher (3.1×10^4 cm^−1 M^−1 at λ423 nm) than that of Cascade Blue (2.9×10^4 cm^−1 M^−1 at λ410 nm), an additional advantage for increased sensitivity. Photostability of the dye (compound 6 in FIG. 6) was tested under the light exposure. The scans were overlaid up to 60 mins with 15 min interval. […] This resistance to photobleaching greatly enhances the utility of the dye for quantitative measurements and permits extended illumination time.
Obvious is the spectra region shorter than 500 nm which is particularly valuable to get away from interference where green fluorescent protein is present or, to carry out the applications requiring multiple dyes such as flow cytometry, DNA sequencing and multiparameter microscopy. […] This special feature increases the sensitivity of the fluorescence techniques where the emission signal can be maximized against the low background.

[2] = Molar extinction coefficient; format: physicochemical; details: at λ410 nm
Source text: as §1, with “sensitivity.” for “sensitivity. Photostability of the dye (compound 6 in FIG. 6) was tested under the light exposure. The scans were overlaid up to 60 mins with 15 min interval.”

Row | Stokes shift [1] | peak of emission [1] | peak of excitation [1] | molar extinction coefficient [2] | Compound
1 | ca. 44 nm | 465 nm | 421 nm | – | O=S(=O)(c1cc(OCCCO)c2ccc3c(S(=O)(=O)N4CCOCC4)cc(S(=O)(=O)N4CCOCC4)c4ccc1c2c34)N1CCOCC1 [Compound 4a, 8-(3′-hydroxypropyloxy)pyren-tris(morpholino)-1,3,6-trisulfonamide]
2 | ca. 20 nm | – | – | 29000 cm⁻¹ M⁻¹ | Cascade Blue [reference compound]
